Three compounds from US20260217709A1, “2-OXOQUINAZOLINE DERIVATIVES AS METHIONINE ADENOSYLTRANSFERASE 2A INHIBITORS” (IDEAYA BIOSCIENCES, INC., priority 2018, published 2026) can be followed below.

Experiment [1] deals with T1, hMAT2A (Homo sapiens, UniProt P31153). The experiment in a line: Phosphate Sensor Fluorescence Assay (MAT2A enzyme inhibition). It counts as biochemical. More on the design: Human MAT2A: Cepter, amino acids 1-395; purchased Cepter clone ID 329, lot 00023-123; clone ID 334, lot 00023-148. Particulars: L-methionine 500 uM, ATP 500 uM, 1 hour room temperature. On the procedure: (§1) The ability of the compound of present disclosure to inhibit MAT2A enzyme was determined using the Malachite Green or Phosphate Sensor Fluorescence Assay described below.
T1 sequence (P31153 whole entry, the tested form may be a part): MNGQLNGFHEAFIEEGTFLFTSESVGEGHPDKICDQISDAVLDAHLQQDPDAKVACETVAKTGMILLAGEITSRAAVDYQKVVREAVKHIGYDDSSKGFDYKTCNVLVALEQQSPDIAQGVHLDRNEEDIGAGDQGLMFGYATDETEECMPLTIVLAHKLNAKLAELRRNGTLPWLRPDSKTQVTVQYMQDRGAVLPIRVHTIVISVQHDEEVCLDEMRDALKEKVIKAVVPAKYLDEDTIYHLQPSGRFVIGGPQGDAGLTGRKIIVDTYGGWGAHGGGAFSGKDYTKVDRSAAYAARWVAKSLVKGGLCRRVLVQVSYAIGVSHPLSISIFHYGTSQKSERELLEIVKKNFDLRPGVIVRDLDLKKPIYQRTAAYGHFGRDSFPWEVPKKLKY
B. Phosphate Sensor Fluorescence Assay
MAT2A enzyme is incubated with a test compound in DMSO or DMSO and its substrates (L-methionine and ATP) in a microtiter plate. The enzymatic reaction is stopped by the addition of Working Phosphate Sensor Mixture. The plate is analyzed for fluorescence at 450 nm.
Test compounds or DMSO were added to the appropriate well suing D300e digital dispenser. 5 μl/well of Assay Buffer was added to the wells corresponding to the negative control and 5 μl/well of MAT2A was added to all the wells except for those corresponding to the negative control. After incubating the plate at room temperature for 15 minutes, 5 μl/well of the 1 mM L-methionine/1 mM ATP mixture was added to all wells. The plate was centrifuged at 1000 rpm for 1 minute and then incubated at room temperature for 1 hour. 5 μl of the Working Phosphate Sensor Mixture was added to all wells and the plate was centrifuged at 1000 rpm for 1 minute. The plate was read for fluorescence at 450 nm after exciting at 430 nm.
Percent inhibition was calculated in Chemical and Biological Information System (CBIS), (ChemInnovation Software Inc.). […]

The target in experiment [2] is T1, hMAT2A. The experiment in a line: Malachite Green Assay (MAT2A enzyme inhibition). Particulars: hMAT2A 50 nM, substrates 500 uM each, reaction time 1 hour, 23° C. The format is biochemical. More on the design: amino acids 1-395; purchased Cepter. On the procedure: as §1
L-methionine Substrate: Alfa Aesar catalog #J61904
ATP Substrate: Alfa Aesar cat #J60336
Malachite Green Detection Reagent: Millipore Sigma catalog #MAK307-1KT
Assay buffer: 50 mM Tris, pH 7.5/50 mM KCl/10 mM MgCl2/0.01% Brij-35/1 mM DTT/0.1% BGG
The plate was centrifuged at 1000 rpm for 1 minute and then incubated at room temperature for 1 hour. 5 μL of malachite green detection reagent was added to all the test wells and the plate was centrifuged at 1000 rpm for 1 minute and then incubated at room temperature for 30 minutes. The plate was read for absorbance at 620 nm on a plate reader (e.g., Infinite M1000).

The compound “7-chloro-1-(2-fluoro-3- metho xyphenyl)-4- hydroxyhydroquinazolin-2-one [Example 332]” returned an IC50 in experiment [1] (numeric bound) greater than 10 µM. Consider “1[2-(difluoromethoxy)(3-pyridyl)]-7- cyclopropyl-4-[(cyclopropylmethyl)- amino]hydroquinazolin-2-one [Example 416]”, for which the IC50 in experiment [1] (class symbols) was less than 0.2 µM. In experiment [2], `Nc1nc(=O)n(-c2ccccc2)c2cc(Cl)ccc12` [Example 59, 4-amino-7-chloro-1-phenylquinazolin-2(1H)-one] had a half-maximal inhibitory concentration (IC50) of 1 to 10 µM.

Broadly, the IC50 is the concentration needed to halve the response being measured. A higher IC50 goes with a need for much substance.
